Measurements as given in patent publication US20230338545A1 (SYRACUSE UNIVERSITY, priority 2020, published 2023).
Entries after “also recorded” stand apart in the source; their conditions may differ.

Assays:
CaCo-2 cells = assay: Cellular uptake of magnesium in CaCo-2 cells; assay type: cell-based, human; settings: incubation time 1 hr, samples contain ~8% magnesium citrate
[1] = comparison value; cited from earlier work

Row | Compound | cellular uptake of magnesium (CaCo-2 cells) | solubility (Solubility in water; Example 3 product) [g/100 mL H2O] | solubility relative to that of the free ligand (Solubility in water; complex vs. its ligand (maltol or ethylmaltol), water) | solubility (Solubility in water; triplicate independent runs) | water solubility of free ligand [1] [g/100 mL]
1 | magnesium ethylmaltol [Complex 2] | substantial uptake of magnesium; also recorded: slightly greater uptake than Complex 1; also recorded: confirmed cellular entry | 26.8 | approximately 4.9 × | 28.4±0.86 g per 100 mL of H2O | –
2 | CCc1occc(=O)c1O [ethylmaltol] | – | – | – | – | 5.84
3 | Cc1occc(=O)c1O [maltol, 3-HYDROXY-2-METHYL-4H-PYRAN-4-ONE] | – | – | – | – | 1.2
4 | magnesium maltol [Complex 1] | substantial uptake of magnesium; also recorded: confirmed cellular entry | – | – | – | –
